Results: patent US20230348444A1, “NOVEL COMPOUNDS FOR USE IN THE TREATMENT OF DISEASES ASSOCIATED WITH ANGIOTENSIN II” (Vicore Pharma AB, priority 2020, published 2023)
Read-outs that look alike come from different tables or passages of the source.

How the values were obtained:
CYP3A4 = CYP3A4 (Homo sapiens, UniProt P08684); assay: CYP inhibition in human liver microsomes (Eurofins protocol ITEMG232), midazolam substrate; format: in vitro ADME; set-up: using isoform-specific substrates incubated with human liver microsomes; tissue Eurofins ITEMG232; host or cells: human liver microsomes; details: for CYP3A4 midazolam Inh %: 10 μM; for inhibition at 10 µM: probe midazolam, read-out: CYP3A4 midazolam Inh %
CYP3A4, sequence (P08684 whole entry, canonical isoform): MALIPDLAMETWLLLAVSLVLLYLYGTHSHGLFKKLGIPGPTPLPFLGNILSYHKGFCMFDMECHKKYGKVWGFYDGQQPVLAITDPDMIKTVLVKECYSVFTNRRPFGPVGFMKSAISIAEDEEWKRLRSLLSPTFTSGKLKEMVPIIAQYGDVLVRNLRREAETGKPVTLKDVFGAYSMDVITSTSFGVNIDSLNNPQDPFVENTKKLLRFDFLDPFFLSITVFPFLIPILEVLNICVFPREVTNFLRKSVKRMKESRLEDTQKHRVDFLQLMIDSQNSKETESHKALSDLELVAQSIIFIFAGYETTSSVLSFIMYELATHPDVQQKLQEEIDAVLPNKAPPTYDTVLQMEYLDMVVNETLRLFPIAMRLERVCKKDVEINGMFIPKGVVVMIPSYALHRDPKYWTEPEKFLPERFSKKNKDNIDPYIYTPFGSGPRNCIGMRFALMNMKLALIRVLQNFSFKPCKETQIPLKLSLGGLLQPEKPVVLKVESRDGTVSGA
Method: (§1) The following substrates were used; CYP1A phenacetin, CYP2B6 bupropion, CYP2C8 paclitaxel and amodiaquine, CYP2C9 diclofenac, CYP2C19 omeprazole, CYP2D6 dextromethorphan, CYP3A midazolam and testosterone.
(§2) At the end of the incubation, the formation of metabolite was monitored by HPLC-MS/MS as the peak area response.

CYP2B6 = target: T1, CYP2B6 (Homo sapiens, UniProt P20813); assay: CYP inhibition in human liver microsomes (Eurofins protocol ITEMG232); format: in vitro ADME; details: substrate bupropion; for CYP2B6 Inh %: 10 μM; for inhibition at 10 µM: probe bupropion, read-out: CYP2B6 Inh %
T1 construct: using isoform-specific substrates incubated with human liver microsomes; tissue Eurofins ITEMG232; host or cells: human liver microsomes
T1 sequence (P20813 1-491): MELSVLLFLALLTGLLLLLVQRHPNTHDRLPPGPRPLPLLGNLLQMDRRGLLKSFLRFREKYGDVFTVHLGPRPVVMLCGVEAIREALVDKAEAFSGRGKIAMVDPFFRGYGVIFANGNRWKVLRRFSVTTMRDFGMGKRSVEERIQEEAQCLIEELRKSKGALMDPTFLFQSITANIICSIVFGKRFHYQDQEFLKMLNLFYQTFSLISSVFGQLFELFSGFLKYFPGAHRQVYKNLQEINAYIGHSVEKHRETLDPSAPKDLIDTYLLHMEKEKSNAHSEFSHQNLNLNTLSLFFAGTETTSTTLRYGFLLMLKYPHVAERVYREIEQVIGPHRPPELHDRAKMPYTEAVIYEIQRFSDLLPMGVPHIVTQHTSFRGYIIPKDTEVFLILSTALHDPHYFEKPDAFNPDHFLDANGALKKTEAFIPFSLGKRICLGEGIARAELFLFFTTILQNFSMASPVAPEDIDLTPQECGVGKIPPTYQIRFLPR
Method: as §1, §2

[1] = Metabolic stability in pooled human liver microsomes with or without NADPH; format: in vitro ADME; details: pooled human liver microsomes 0.5 mg/mL in PBS, 1 uM test compound, 37° C.; for half-life at 1 uM: human, pooled human liver microsomes
Method: Pooled human liver microsomes in PBS at a concentration of 0.5 mg/mL was incubated with or without 1 mM NADPH for 70 min at 37° C. Test compound was added after 10 minutes to a final concentration of 1 uM. Samples were withdrawn at 0, 5, 15 and 60 minutes and added to test tubes containing acetonitrile, to stop the reaction, and with terfenadine, used as internal standard. After centrifugation at 10000×g for 5 minutes the supernatant was diluted 1:1 with 1% formic acid. Samples were separated on a reverse phase column and detected by triple quadrupole MSMS (Agilant model 6540). The concentration of the parent compound at the different time points was measured with an external standard curve using terfenadine as internal standard and the initial metabolic rate in the presence or absence of NADPH calculated.

[2] = target: T2, human recombinant AT1 receptor (Homo sapiens, UniProt P30556); assay: biochemical
T2 sequence (P30556 1-359): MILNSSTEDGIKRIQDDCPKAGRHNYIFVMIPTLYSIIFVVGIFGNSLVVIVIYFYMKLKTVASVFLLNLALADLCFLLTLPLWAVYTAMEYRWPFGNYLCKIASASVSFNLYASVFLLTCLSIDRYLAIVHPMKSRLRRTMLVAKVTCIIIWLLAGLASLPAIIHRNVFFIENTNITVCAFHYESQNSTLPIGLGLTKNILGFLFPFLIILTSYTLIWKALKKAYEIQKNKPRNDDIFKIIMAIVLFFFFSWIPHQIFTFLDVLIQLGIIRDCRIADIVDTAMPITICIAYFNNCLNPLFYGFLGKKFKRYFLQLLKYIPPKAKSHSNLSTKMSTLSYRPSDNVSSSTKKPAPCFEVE
Method: (§3) Compounds were evaluated for binding to the human recombinant AT2 and AT1 receptor according to Eurofins protocol ITEM26 and ITEM24 using a radiometric scintillation assay.

[3] = target: T3, human recombinant AT2 receptor (Homo sapiens, UniProt P50052); assay: biochemical
T3 sequence (P50052 1-363): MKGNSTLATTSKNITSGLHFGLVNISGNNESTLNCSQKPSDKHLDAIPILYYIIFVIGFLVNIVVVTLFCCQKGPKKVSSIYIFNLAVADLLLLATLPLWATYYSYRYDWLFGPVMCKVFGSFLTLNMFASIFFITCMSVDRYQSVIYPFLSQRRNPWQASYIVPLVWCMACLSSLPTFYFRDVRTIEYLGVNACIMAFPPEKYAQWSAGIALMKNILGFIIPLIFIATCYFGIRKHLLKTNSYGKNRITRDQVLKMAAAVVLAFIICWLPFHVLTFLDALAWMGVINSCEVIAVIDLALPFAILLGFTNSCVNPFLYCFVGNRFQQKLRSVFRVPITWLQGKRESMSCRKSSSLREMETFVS
Method: as §3

[4] = with 1 mM NADPH, read-out: T1/2, +NaDPH
[5] = without NADPH, read-out: T1/2, no NaDPH

CCOC(=O)NS(=O)(=O)c1sc(CC(C)C)cc1-c1ccc(Cn2ccnc2C(C)C)c(F)c1.O=C(O)C(F)(F)F [Example 8, Ethyl (3-(3-fluoro-4-((2-isopropyl-1H-imidazol-1-yl)methyl)phenyl)-5-isobutylthio-phen-2-yl)sulfonylcarbamate trifluoroacetic acid]
CYP3A4 midazolam Inh % (CYP3A4): −52%
CYP2B6 Inh % (CYP2B6): 36%
T1/2, +NaDPH ([1]; with 1 mM NADPH): 46 min
T1/2, no NaDPH ([1]; without NADPH): 53 min

COCCOC(=O)NS(=O)(=O)c1sc(CC(C)C)cc1-c1ccc(Cn2ccnc2C)c(F)c1.O=C(O)C(F)(F)F [Example 3]
CYP3A4 midazolam Inh % (CYP3A4): −52%
CYP2B6 Inh % (CYP2B6): 36%
T1/2, +NaDPH ([1]; with 1 mM NADPH): >60 min
T1/2, no NaDPH ([1]; without NADPH): >60 min

Cc1nccn1Cc1c(F)cc(-c2cc(CC(C)C)sc2S(=O)(=O)NC(=O)OCCO)cc1F [Example 18, 2-Hydroxyethyl (3-(3,5-difluoro-4-((2-methyl-1H-imidazol-1-yl)methyl)phenv1)-5-isobutylthiophen-2-yl)sulfonylcarbamate]
CYP3A4 midazolam Inh % (CYP3A4): −35.6%
CYP2B6 Inh % (CYP2B6): 33.3%
T1/2, +NaDPH ([1]; with 1 mM NADPH): 4 min
T1/2, no NaDPH ([1]; without NADPH): >60 min

CCOC(=O)NS(=O)(=O)c1sc(CC(C)C)cc1-c1ccc(Cn2ccnc2CC)c(F)c1.O=C(O)C(F)(F)F [Example 7, Ethyl (3-(4-((2-ethyl-1H-imidazol-1-yl)methyl)-3-fluorophenyl)-5-isobutylthiophen-2-30 yl)sulfonylcarbamate trifluoroacetic acid]
CYP3A4 midazolam Inh % (CYP3A4): −31%
CYP2B6 Inh % (CYP2B6): 26%
T1/2, +NaDPH ([1]; with 1 mM NADPH): 40 min
T1/2, no NaDPH ([1]; without NADPH): 40 min

CC(C)Cc1cc(-c2ccc(Cn3ccnc3C(C)(C)C)c(F)c2)c(S(=O)(=O)NC(=O)c2ccccn2)s1 [Example 27, N-((3-(4-((2-(Tert-Butyl)-1H-imidazol-1-yl)methyl)-3-fluorophenyl)-5-isobutylthio-phen-2-yl)sulfonyl)picolinamide]
IC50 [2]: 2300 nM
inhibition at 10 µM (CYP3A4): 7.3%
inhibition at 10 µM (CYP2B6): 25%
IC50 [3]: 1.82 nM
half-life at 1 uM [1, 4]: 4 min
half-life at 1 uM [1, 5]: 4 min

CCc1nccn1Cc1ccc(-c2cc(CC(C)C)sc2S(=O)(=O)NC(=O)OCc2ccc(F)cc2)cc1F.O=C(O)C(F)(F)F [Example 6, 4-Fluorobenzyl (3-(4((2-ethyl-1H-imidazol-1-yl)methyl)-3-fluorophenyl)-5-isobutylthio-phen-2-yl)sulfonylcarbamate trifluoroacetic acid]
CYP3A4 midazolam Inh % (CYP3A4): −39%
CYP2B6 Inh % (CYP2B6): 30%
T1/2, +NaDPH ([1]; with 1 mM NADPH): 7 min
T1/2, no NaDPH ([1]; without NADPH): 50 min

Cc1nccn1Cc1ccc(-c2cc(CC(C)C)sc2S(=O)(=O)NC(=O)OCCOC(=O)C(C)(C)C)cc1F [Example 19, 2-((((3-(3-Fluoro-4-((2-methyl-1H-imidazol-1-yl)methyl)phenyl)-5-isobutylthiophen-2-yl)sulfonyl)carbamoyl)oxy)ethyl pivalate]
IC50 [2]: 9000 nM
inhibition at 10 µM (CYP3A4): 43.4%
inhibition at 10 µM (CYP2B6): 26.9%
IC50 [3]: 4.1 nM
half-life at 1 uM [1, 4]: 1 min
half-life at 1 uM [1, 5]: 12 min

CCOC(=O)NS(=O)(=O)c1sc(CC(C)C)cc1-c1ccc(Cn2ccnc2C)c(F)c1.O=C(O)C(F)(F)F [Example 1, Ethyl (3-(3-fluoro-4-((2-methyl-1H-imidazol-1-yl)methyl)phenyl)-5-isobutylthiophen-2-yl)sulfonvicarbamate trifluoroacetic acid]
CYP3A4 midazolam Inh % (CYP3A4): −42%
CYP2B6 Inh % (CYP2B6): 39%
T1/2, +NaDPH ([1]; with 1 mM NADPH): 50 min
T1/2, no NaDPH ([1]; without NADPH): 60 min
